# Test results as given in patent US20240246995A1, “PYRIMIDINONE DERIVATIVE AND PREPARATION METHOD THEREFOR, PHARMACEUTICAL COMPOSITION, AND USE” (SHANGHAI SIMR BIOTECHNOLOGY CO., LTD., priority 2021, published 2024).
# pIC50: −log10 of the molar value.
# Target: T1, Lipoprotein-Related Phospholipase A2 (Lp-PLA2) in Human Plasma (Homo sapiens, UniProt Q13093)
# T1 construct: 40 μL of equally-divided and thawed mixed human plasma is pre-added; from tissue; host or cells: mixed (pooled) human plasma
# T1 sequence (Q13093 22-441): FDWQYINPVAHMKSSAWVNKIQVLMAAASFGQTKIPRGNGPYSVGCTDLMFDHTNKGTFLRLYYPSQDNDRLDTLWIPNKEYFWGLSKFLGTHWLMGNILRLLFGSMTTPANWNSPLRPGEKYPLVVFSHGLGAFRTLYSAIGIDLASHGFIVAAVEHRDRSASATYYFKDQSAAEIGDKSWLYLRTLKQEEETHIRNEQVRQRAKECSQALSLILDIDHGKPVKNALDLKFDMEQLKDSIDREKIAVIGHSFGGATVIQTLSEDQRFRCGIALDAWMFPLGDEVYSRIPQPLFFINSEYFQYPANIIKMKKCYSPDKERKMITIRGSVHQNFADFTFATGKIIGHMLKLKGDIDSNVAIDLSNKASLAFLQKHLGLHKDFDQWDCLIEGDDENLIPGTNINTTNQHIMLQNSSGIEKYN
# Assay: Determination of Lp-PLA2 in human plasma (Thio-PAF assay)
# Type: biochemical
# Settings: mixed human plasma, 2-thio-PAF substrate, 30 minutes pre-incubation at room temperature
# Excerpt: Determination of Lipoprotein-Related Phospholipase A2 (Lp-PLA2) in Human Plasma.
# Human plasma determination utilizes a thioester analogue of phosphatidylcholine (PAF), where hydrolysis leads to the formation of phospholipids containing free thiol groups. The amount of the thiol groups is continuously determined by reacting with CPM (7-diethylamino-3-(4′-maleimidophenyl)-4-methylcoumarin), which is maleimide with increased fluorescence after Michael addition of the thiol groups. This determination can detect the activity of Lp-PLA2 in human plasma, for example, determined by the specific inhibition of the Lp-PLA2 inhibitors.
# Thio-PAF determination, as quenched 75 μL determination, is carried out. A compound source plate is prepared by preparing a 1:3 (volume) series of diluents of each compound in pure DMSO on a 96-well microplate. A Rainin multi-channel pipette is used to transfer 3 μL of a compound on the compound source plate into a 96-well microplate where 57 μL of a determination buffer is pre-added, and the compound on the source plate is diluted by 20 folds. The above determination buffer contains 50 mM HEPES (pH 7.4), 150 mM NaCl, and 1 mM CHAPS. A Rainin multi-channel pipette is used to transfer 1 μL of the compound subjected to 20-fold dilution into a 96-well Greiner 655076 (black) microplate where 40 μL of equally-divided and thawed mixed human plasma is pre-added. The plate is oscillated for 20 seconds in an Elisa plate oscillator to be mixed evenly. After 30 minutes of pre-incubation at the room temperature, a Rainin multi-channel pipette is used to add 10 μL of a substrate solution to a 96-well Greiner 655076 (black) microplate, and the substrate solution contains 2.5 mM 2-thio-PAF [from ethanol mother liquor], 32 μM CPM [from DMSO mother liquor] and 3.2 mM NEM (N-ethylmaleimide) [newly prepared in DMSO for each experiment] in a determination buffer composed of 50 mM HEPES (pH 7.4), 150 mM NaCl, and 1 mM CHAPS. After 2 minutes, 25 μL of a 5% trifluoroacetic acid (TFA) aqueous solution is used for quenching the reaction. The plate is centrifuged at 2000 rpm for 1 minute. A Biotek Synergy H1 (H1MF) Elisa reader is used to read the plate at ex:380/em:485. GraphPad Prism 6.0 and Excel are used for IC50 data, curve, and QC analysis.
row,Structure (SMILES),pIC50
1,"O=c1nc(OCc2ccc(Oc3ccnc(C(F)(F)F)c3)c(F)c2)cc2n1CCC1CCCCN21 (stereo not shown) [Example 42, 2-((3-fluoro-4-((2-(trifluoromethyl)pyrid-4-yl)oxy)benzyl)oxy)-7,7a,8,9,10,11-hexahydro-4H,6H-pyridine[1,2-c]pyrimidine[1,6-a]pyrimidine-4-one]",7.61
2,O=c1nc(OCc2cc(F)c(Oc3cnc(C(F)(F)F)nc3)c(F)c2)cc2n1CCC1CCCN21 (stereo not shown) [Example 31],7.01
3,"O=c1nc(OCCc2ccc(Oc3ccc(Cl)c(C(F)(F)F)c3)cc2)cc2n1CCC1CCCCN21 (stereo not shown) [Example 46, 2-(4-(4-chloro-3-(trifluoromethyl)phenoxy)phenylethoxy)-7,7a,8,9,10,11-hexahydro-4H, 6H-pyridyl[1,2-c] pyrimidinyl[1,6-a] pyrimidine-4-one]",6.66
4,"O=c1nc(OCCc2ccc(Oc3ccc(Cl)c(C(F)(F)F)c3)cc2)cc2n1CCC1COCCN21 (stereo not shown) [Example 56, 2-(4-(4-chloro-3-(trifluoromethyl)phenoxy)phenyl-ethoxy)-6,7,7a,8,10,11-hexahydro-4H-pyrimidinyl [6′,1′:2,3] pyrimidinyl[6,1-c] [1,4]oxazin-4-one]",7.70
5,O=c1nc(OCc2cc(F)c(Oc3ccnc(Cl)c3)c(F)c2)cc2n1CCC13CC(CN21)C3 [Example 17],7.67
6,"Cc1cc(Oc2c(F)cc(COc3cc4n(c(=O)n3)CCC3(C)CCCN43)cc2F)ccn1 (stereo not shown) [Example 35, 2-((3,5-fluoro-4-((2-methylpyrid-4-yl)oxy)benzyl)oxy)-7a-methyl-6,7,7a, 8,9,10-hexahydro-4H-pyrimidinyl [1,6-a]pyrrolo[1,2-c] pyrimidine-4-one]",7.63
7,"O=c1nc(OCc2cc(F)c(Oc3ccc(Cl)c(C(F)(F)F)c3)c(F)c2)cc2n1CCC1CCCCN21 (stereo not shown) [Example 43, 2-((4-(4-chloro-3-(trifluoromethyl)phenoxy)-3,5-di-fluorobenzyl)oxy)-7,7a,8,9,10,11-hexahydro-4H,6H-pyri-dyl[1,2-c]pyrimido [1,6-a]pyrimidine-4-one]",7.92
8,O=c1nc(OCc2ccc(Oc3ccnc(C(F)F)c3)c(F)c2)cc2n1CCC13CC(CN21)C3 [Example 19],7.43
9,"Cc1cc(Oc2c(F)cc(COc3cc4n(c(=O)n3)CCC35CC(CN43)C5)cc2F)ccn1 [Example 15, 2-((3,5-difluoro-4-((2-methylpyrid-4-yl)oxy)benzyl)oxy)-6,7,9,10-tetra-hydro-4H,8H-7a,9-methanopyrimido [1,6-a]pyrrolo[1,2-c]pyrimidine-4-one]",7.56
10,N#Cc1cc(COc2cc3n(c(=O)n2)CC[C@]24CO[C@H](CN32)C4)ccc1F [Example 10],7.97
11,"O=c1nc(OCCc2ccc(Oc3ccc(Cl)c(C(F)(F)F)c3)cc2)cc2n1CC[C@@]13CO[C@@H](CN21)C3 [Example 28, (7aR,10R)-2-(4-(4-chloro-3-(trifluoro-methyl)phenoxy)phenylethoxy)-6,7, 10,11-tetrahydro-4H,8H-7a,10-methanopyrimido [6′,1′:2,3] pyrimido[6,1-c] [1,4]oxazin-4-one]",7.88
12,"O=c1nc(OCc2cc(F)c(Oc3ccc(Cl)c(C(F)(F)F)c3)c(F)c2)cc2n1CCC1CCCN21 (stereo not shown) [Example 33, 2-((4-(4-chloro-3-(trifluoromethyl)phenoxy)-3,5-di-fluorobenzyl)oxy)-6,7,7a,8,9,10-hexahydro-4H-pyrimidinyl [1,6-a]pyrrolo [1,2-c]pyrimidine-4-one]",7.61
13,"O=c1nc(OCc2cc(F)c(Oc3ccnc(C(F)(F)F)c3)c(F)c2)cc2n1CCC1CCCN21 (stereo not shown) [Example 29, 2-((3,5-difluoro-4-((2-(trifluoromethyl)pyrid-4-yl)oxy)benzyl)oxy)-6,7,7a,8,9,10-hexahy-dro-4H-pyrimidinyl [1,6-a]pyrrolo [1,2-c]pyrimidine-4-one]",7.27
14,"O=c1nc(OCc2cc(F)c(Oc3cnc(C(F)(F)F)nc3)c(F)c2)cc2n1CCC1CCCCN21 (stereo not shown) [Example 45, 2-((3,5-difluoro-4-((2-(trifluoromethyl)pyrimidin-5-yl)oxy)benzyl)oxy)-7,7a,8,9,10,11-hexahydro-4H,6H-pyridino[1,2-c]pyri-mido[1,6-a] pyrimidine-4-one]",7.18
15,N#Cc1cc(COc2cc3n(c(=O)n2)CCC2CCCN32)ccc1Oc1cccc(C(F)(F)F)c1 (stereo not shown) [Example 32],7.34

# Compounds with a higher pIC50, results first:
row,pIC50,Structure (SMILES)
1,8.24,"N#Cc1c(OCc2ccc(Oc3ccnc(C(F)(F)F)c3)c(F)c2)nc(=O)n2c1N1CCCC1CC2 (stereo not shown) [Example 64, 2-((3-fluoro-4-((2-(trifluoromethyl)pyrid-4-yl)oxy)benzyl)oxy)-4-oxo-6,7,7a,8,9,10-hexahydro-4H-pyrimidinyl [1,6-a]pyrrolo [1,2-c]pyrimidine-1-nitrile]"
2,8.11,O=c1nc(OCc2cc(F)c(Oc3ccnc(C(F)(F)F)c3)c(F)c2)cc2n1CC[C@]13CO[C@H](CN21)C3 [Example 3]
3,8.34,O=c1nc(OCc2cc(F)c(Oc3cnc(C(F)(F)F)nc3)c(F)c2)cc2n1CC[C@@]13CO[C@@H](CN21)C3 [Example 27]
4,8.44,O=c1nc(OCc2cc(F)c(Oc3ccnc(OC(F)(F)F)c3)c(F)c2)cc2n1CC[C@]13CO[C@H](CN21)C3 [Example 7]
5,8.19,N#Cc1cc(COc2cc3n(c(=O)n2)CC[C@@]24CO[C@@H](CN32)C4)ccc1Oc1cccc(C(F)(F)F)c1 [Example 25]
6,8.29,COc1c(OCc2ccc(Oc3ccnc(C(F)(F)F)c3)c(F)c2)nc(=O)n2c1N1CCCC[C@H]1CC2 [Example 48]
7,8.05,"O=c1nc(OCCc2ccc(Oc3ccc(Cl)c(C(F)(F)F)c3)cc2)cc2n1CC[C@]13CO[C@H](CN21)C3 [Example 11, (7aS, 10S)-2-(4-(4-chloro-3-(trifluoro-methyl)phenoxy)phenylethoxy)-6,7, 10,11-tetrahydro-4H,8H-7a,10-methanopyrimido [6′,1′:2,3]pyrimido [6,1-c][1,4]oxazin-4-one]"
8,8.14,N#Cc1cc(COc2cc3n(c(=O)n2)CCC2COCCN32)ccc1Oc1cccc(C(F)(F)F)c1 (stereo not shown) [Example 53]
9,8.30,"O=c1nc(OCc2ccc(Oc3ccnc(C(F)(F)F)c3)c(F)c2)cc2n1CC[C@]13CO[C@H](CN21)C3 [Example 1, (7aS,10S)-2-((3-fluoro-4-((2-(trifluoromethyl)pyrid-4-yl)oxy)benzyl)oxy)-6,7,10,11-tetra hydro-4H,8H-7a,10-methanopyrimido[6′,1′:2,3]pyrimido[6,1-c][1,4]oxazin-4-one]"
10,8.00,"CC12CCCN1c1cc(OCc3ccc(Oc4ccnc(C(F)(F)F)c4)c(F)c3)nc(=O)n1CC2 (stereo not shown) [Example 34, 2-((3-fluoro-4-((2-(trifluoromethyl)pyrid-4-yl)oxy)benzyl)oxy)-7a-methyl-6,7,7a,8,9,10-hexahydro-4H-pyri-midinyl[1,6-a] pyrrolo[1,2-c] pyrimidine-4-one]"
11,8.18,"O=c1nc(OCc2cc(F)c(Oc3ccnc(C(F)(F)F)c3)c(F)c2)cc2n1CCC1COCCN21 (stereo not shown) [Example 51, 2-((3,5-difluoro-4-((2-(trifluoromethyl)pyrid-4-yl)oxy)benzyl)oxy)-6,7,7a,8,10,11-hexahydro-4H-pyrimidinyl [6′,1′:2,3]pyrimidine [6,1-c][1,4] oxazin-4-one]"
12,8.08,"O=c1nc(OCc2ccc(Oc3ccnc(C(F)(F)F)c3)c(F)c2)cc2n1CCC13CC(CN21)C3 [Example 13, 2-((3-fluoro-4-((2-(trifluoromethyl)pyrid-4-yl)oxy)benzyl)oxy)-6,7,9,10-tetrahydro-4H,8H-7a,9-methanopyri-mido[1,6-a]pyrrolo [1,2-c]pyrimidine-4-one]"
13,8.04,N#Cc1cc(COc2cc3n(c(=O)n2)CCC24CC(CN32)C4)ccc1Oc1cccc(C(F)(F)F)c1 [Example 16]
